Results taken from patent US9173923B2, “Modulating innate immune cell activity by lunasin and selected cytokines” (Indiana University Research & Technology Corporation, priority 2011, dated 2015).

B1: IL-12 (protein, UniProt P43431 23-215; P43432 23-335, looked up)
Interleukin-12 subunit alpha: RVIPVSGPARCLSQSRNLLKTTDDMVKTAREKLKHYSCTAEDIDHEDITRDQTSTLKTCLPLELHKNESCLATRETSSTTRGSCLPPQKTSLMMTLCLGSIYEDLKMYQTEFQAINAALQNHNHQQIILDKGMLVAIDELMQSLNHNGETLRQKPPVGEADPYRVKMKLCILLHAFSTRVVTINRVMGYLSSA
Interleukin-12 subunit beta: MWELEKDVYVVEVDWTPDAPGETVNLTCDTPEEDDITWTSDQRHGVIGSGKTLTITVKEFLDAGQYTCHKGGETLSHSHLLLHKKENGIWSTEILKNFKNKTFLKCEAPNYSGRFTCSWLVQRNMDLKFNIKSSSSSPDSRAVTCGMASLSAEKVTLDQRDYEKYSVSCQEDVTCPTAEETLPIELALEARQQNKYENYSTSFFIRDIIKPDPPKNLQMKPLKNSQVEVSWEYPDSWSTPHSYFSLKFFVRIQRKKEKMKETEEGCNQKGAFLVEKTSTEVQCKGGNVCVQAQDRYYNSSCSKWACVPCRVRS

How the values were obtained:
[1] = boiling; cited from earlier work
[2] = tested on: peripheral blood mononuclear cells (PBMCs); CD3 negative and CD56 positive NK cell populations; experiment: Intracellular cytokine staining of IFNγ in stimulated PBMCs of normal controls (flow cytometry); type: cell-based, human; details: 1 day
Protocol: (§1) FIG. 1 IFNγ production by primary NK cells following stimulation. Human primary NK cells were isolated from peripheral blood mononuclear cells (PBMCs) of normal controls using positive selection with CD56 magnetic beads (Miltenyi Biotec Auburn. CA). […] At the last 6 hrs of stimulation, golgistop (monensin) was added to block the secretion of IFNγ. Stimulated PBMCs were surface stained with FITC-conjugated CD3 and PE-congugated CD56 monoclonal antibodies (BD), washed, fixed, and permeabilized. After washing, cells were incubated with APC-conjugated anti IFNγ monoclonal antibody. Expression of IFNγ was evaluated on 5000 events of gated CD3 negative and CD56 positive NK cell populations. The % of NK populations producing IFNγ is labeled at the upper right quadrant of the dot plot. (B) IFNγ production in the supernatants. […] The cell pellets from (B) were analyzed for gene expression using qPCR with Taqman Assay primers. […]
Following 1 day of stimulation, distinct cell populations that respond to stimulation were evaluated using intracellular cytokine staining for IFNγ production. […]
Aliquots of PBMCs isolated from healthy volunteer donors were cryopreserved in liquid nitrogen for the following assays. […] Expression of IFNγ was evaluated on 5000 events of gated CD3 negative and CD56 positive NK cell populations. […] The cell pellets were analyzed for gene expression using qPCR with Taqman Assay primers. […]

[3] = tested on: NK cells isolated from lungs; experiment: Ifng gene expression in lung NK cells of mice gavaged with lunasin; type: in vivo, Balb/c mice; details: 4 mg lunasin by gavage for 3 consecutive days
Protocol: FIG 24 Gene expression of Ifng from mice treated with lunasin. Balb/c mice were gavaged with […] of water only (H2O) or 4 mg of lunasin in […] water (Lunasin) for 3 consecutive days. One day after the last gavage. mice were sacrificed to collect the lungs. NK cells were isolated from lungs of each mouse using positive selection with DX5 magnetic beads (Miltenyi Biotec) followed by RNA extraction, cDNA synthesis and real time qPCR using Taqman assay primers (ABI). Gene expression for IFNg (Ifng) from lungs is presented as mean±SD from 2 mice in each group.
Balb/c mice were gavaged with 200 μl of water only (H2O) or 4 mg of lunasin in 200 μl water (Lunasin) for 3 consecutive days. One day after the last gavage, mice were sacrificed to collect the lungs and spleens. NK cells were isolated from each lung and spleen using positive selection with DX5 magnetic beads (Miltenyi Biotec) followed by RNA extraction, cDNA synthesis and real tune qPCR using Taqman assay primers (ABE). Gene expression for Ifng from lungs (upper panel) and spleens (lower pannel) is presented as mean±SD from 2 mice in each group.

[4] = tested on: acetylation of histone H3 and H4; details: extracted from autoclaved soybean products or blood of rats fed LES; cited from earlier work
[5] = cited from earlier work
human primary NK cells [6] = experiment: Gene expression by primary NK cells (real time qPCR, Taqman Assay); type: cell-based
Text: FIG. 3 Synergistic effects of lunasin and cytokines on gene expression by human primary NK cells. […] One day following the stimulation, the cell pellets were resuspended in Trizol Reagents for total RNA extraction. The first-strand cDNA was synthesized followed by real time qPCR using Taqman Assay with primers for IFNγ(IFNG), granzyme B (GZMB), granulysin (GNLY), chemokine (C-C motif) ligand 3 or CCL3 (CCL3), CCL4 (CCL4). Granulocyte-macrophage colony-stimulating factor or GM-CSF (CSF2) TGFβ (TGFB) and TGFβ receptor (TGFBR2) in ABI 7300 (Applied Biosystems by Life Technologies, Carlsbad CA) Data are presented as mean±SD from 2 duplicates. Results shown are representative over 5 different normal controls. […]
One day following the stimulation, the cell pellets were resuspended in Trizol Reagents for total RNA extraction. The first-strand cDNA was synthesized followed by real time qPCR using Taqman Assay with primers for IFNγ (IFNG), granzyme B (GZMB), granulysin (GNLY), chemokine (C-C motif) ligand 3 or CCL3 (CCL3), CCL4 (CCL4), Granulocyte-macrophage colony-stimulating factor or GM-CSF (CSF2), TGFβ (TGFB) and TGFβ receptor (TGFBR2) in ABI 7300 (Applied Biosystems by Life Technologies, Carlsbad, Calif.). Data are presented as mean±SD from duplicates. Results shown are representative over 5 different normal controls.
Following 1, 2, and 3 days of stimulation, the cell pellets were lysed in Trizol Reagents for total RNA extraction. The first-strand cDNA was synthesized followed by real time qPCR using Taqman Assay with primer for TGFB1 and TGFBR2 in ABI 7300. Results are presented as mean±SD from duplicates. […]
Freshly isolated human NK cells from peripheral blood mononuclear cells (PBMCs) of normal control using positive selection with CD56 magnetic beads (Miltenyi Biotec, Auburn, Calif.) were stimulated with medium only (−), IL-12 (10 ng/ml) or IL-12 (10 ng/ml)+lunasin (5 μM) for 1 day. The cell pellets were lysed in Trizol Reagents for total RNA extraction. The first-strand cDNA was synthesized followed by real time qPCR using Taqman Assay with primer for inhibitory receptors KIR3DL1 (upper panel) and KIR3DL2 (lower panel) in ABI 7300.

allergic inflammation = experiment: LPS-induced asthma mouse model; type: in vivo, BABL/c mice
Protocol: FIG. 25 Lunasin-treated mice have reduced allergic inflammation in a mouse model of asthma. In LPS-induced asthma model BABL/c mice were sensitized intranasally with 0.1 μg of LPS at day 0, 1, and 2 with (LS) or without (Ctrl) lunasin peptide at 4 mg, and then challenged with 50 μg of OVA on days 19, 20 and 21. Another group of mice (LC) was sensitized as the Ctrl group followed by challenging with OVA in the presence of lunasin at 4mg. The total cell numbers (A) and differential cell numbers of eosinophils (B) were counted from the BAL fluid. Data are presented as mean±SD from 3 mice in each group. *,P<0.05; ns not-significant p>0.05. (C) Cells from draining lympho nodes (mediastinal) were stimulated with OVA, and the levels of IL-4 production in the supernatants were evaluated using ELISA. Data are presented as mean ±SD from 3 mice in each group. ***, P<0.005; ns, not-significant, p>0.05.
In LPS-induced asthma model, BABL/c mice were sensitized intranasally with 0.1 μg of LPS at day 0, 1, and 2 with (LS) or without (Ctrl) lunasin peptide at 4 mg, and then challenged with 50 ug of OVA on days 19, 20, and 21. […] The total cell numbers (A) and differential cell numbers of eosinophils (B) were counted from the BAL fluid. […] (C) Cells from draining lympho nodes (mediastinal) were stimulated with OVA, and the levels of IL-4 production in the supernatants were evaluated using ELISA. […]

human primary NK cells [7] = experiment: IFNγ production in supernatants of purified NK cells (ELISA); type: cell-based; details: 1 day
Protocol: as §1
FIG. 7 Dose-dependent effects of lunasin on IFNγ production, Human NK cells isolated as described in FIG. 1 were stimulated with IL-12 at 1 or 10 ng/ml in the absence (A) or presence (B) of various concentrations of lunasin. One day following stimulation, The production of IFNg in the supernatants was determined using ELISA. […]
One day following stimulation. The production of IFNg in the supernatants was determined using ELISA. […]

mouse NK cells = experiment: IFNγ produced by NK cells from tumor-bearing mice with or without etoposide chemotherapy (ELISA); type: cell-based; details: reduced Stat4; mouse IL-12 2 ng/ml or human IL-2 50 units/ml, lunasin 20 μM; 1 day
Protocol: Mouse NK cells were positively selected from spleens of tumor-bearing mice with (+Eto) or without (−Eto) chemotherapeutic drug etoposide. Isolated NK cells were stimulated with mouse IL-12 at 2 ng/ml with (+) or without (−) lunasin peptide (A) or human IL-2 at 50 units/ml with (+) or without (−) lunasin at 20 μM (B). The production of IFNγ in the supernatant after 1 day of stimulation was determined using ELISA. Results are presented as mean±SD from 3 mice. ND is not detectable.

| Molecule | heat stability [1] | IFNγ intracellular staining by cell population (NK, CD4 and CD8 T) [2] | gene expression of Ifng in the lung [3] | bioactivity after autoclaving or feeding (inhibiting acetylation of histone H3 and H4) [4] | distribution of gavaged lunasin ([5]; gavage) | lunasin levels in the blood after oral consumption ([5]; oral) | survival of digestion in the gastrointestinal tract ([5]; oral) | CCL3 gene expression (human primary NK cells [6]; 1 day) | CCL4 gene expression (human primary NK cells [6]; 1 day) | CSF2 (GM-CSF) gene expression (human primary NK cells [6]; 1 day) | GMT gene expression (human primary NK cells [6]; 1 day, lunasin alone) | IFNG gene expression (human primary NK cells [6]; human cells, qPCR) | production of IL-4 (allergic inflammation; draining lymph node cells stimulated with OVA, ELISA) | cell counts in the bronchoalveolar lavage (BAL) fluid (allergic inflammation; lunasin 4 mg intranasal) | production of IFNγ in the supernatants (human primary NK cells [7]) | GZMB (granzyme B) gene expression (human primary NK cells [6]; 1 day, lunasin 20 μM, compared to cytokine alone) | IFNγ production by NK cells from tumor-bearing mice following chemotherapy (+etoposide) (mouse NK cells) |
| --- | --- | --- | --- | --- | --- | --- | --- | --- | --- | --- | --- | --- | --- | --- | --- | --- | --- |
| lunasin | heat-stable | NK but not CD4 or CD8 T populations respond | increased gene expression of Ifng | still active | can be found in the lung and blood | Significant levels of lunasin could be detected in the blood | survives digestion in the gastrointestinal tract | sufficient to up-regulate | sufficient to up-regulate | sufficient to up-regulate | no effects | moderate effects | reduced production of IL-4 | lower cell counts | moderate effects |  |  |
| B1 |  |  |  |  |  |  |  |  |  |  |  |  |  |  |  | no further induction of GZMB | secreted less IFNγ |
